Measured values taken from ChEMBL document CHEMBL1201862, “PubChem BioAssay data set” (2004).
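Protocol summary: plate cells (96-well), add compound at 5 concentrations, incubate 48 h, interpolate endpoints linearly. GI50 is the concentration that inhibits growth by half.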 The source made the active and inactive calls. Rule as the data show it: active = GI50 up to about 1.1 µM and inactive = higher.

Experiments:
Assay in all cases: DTP human tumour cell line panel, 48 h
CCRF-CEM = system: CCRF-CEM
COLO 205 = system: COLO 205
HOP-62 = system: HOP-62
HT-29 = system: HT-29
KM12 = system: KM12
LOX IMVI = system: LOX IMVI
MOLT-4 = system: MOLT-4
NCI-H226 = system: NCI-H226
NCI-H23 = system: NCI-H23
NCI/ADR-RES = system: NCI/ADR-RES
OVCAR-5 = system: OVCAR-5
RXF 393 = system: RXF 393
SF-268 = system: SF-268
SF-539 = system: SF-539
SK-MEL-28 = system: SK-MEL-28
SK-OV-3 = system: SK-OV-3
SN12C = system: SN12C
UACC-257 = system: UACC-257
UO-31 = system: UO-31
SR = system: SR

SMILES | GI50 (CCRF-CEM) | GI50 (COLO 205) | GI50 (HOP-62) | GI50 (HT-29) | GI50 (KM12) | GI50 (LOX IMVI) | GI50 (MOLT-4) | GI50 (NCI-H226) | GI50 (NCI-H23) | GI50 (NCI/ADR-RES) | GI50 (OVCAR-5) | GI50 (RXF 393) | GI50 (SF-268) | GI50 (SF-539) | GI50 (SK-MEL-28) | GI50 (SK-OV-3) | GI50 (SN12C) | GI50 (UACC-257) | GI50 (UO-31) | GI50 (SR)
CCCNC1=C(C)C(=O)C2=C(C1=O)[C@H](COC(N)=O)[C@]1(OC)[C@@H]3N[C@@H]3CN21 | 3.16 µM (inactive) | 3.94 µM (inactive) | 0.303 µM (active) | 9.31 µM (inactive) | 8.85 µM (inactive) | 1.6 µM (inactive) | 1.05 µM (active) | 6.27 µM (inactive) | 0.861 µM (active) | > 100 µM (inactive) | 13.7 µM (inactive) | 12 µM (inactive) | 4.65 µM (inactive) | 4.39 µM (inactive) | 19.8 µM (inactive) | 16.6 µM (inactive) | 2.42 µM (inactive) | 5.55 µM (inactive) | 20.3 µM (inactive) | –
Cc1ccc(C(C)(C)C[P+](C)(c2ccccc2)c2ccccc2)cc1 | 9.08 µM (inactive) | 4.42 µM (inactive) | 18.4 µM (inactive) | 4.46 µM (inactive) | 4.71 µM (inactive) | 7.76 µM (inactive) | 11 µM (inactive) | 15.6 µM (inactive) | 11.7 µM (inactive) | > 100 µM (inactive) | 18.1 µM (inactive) | 27.5 µM (inactive) | 16.9 µM (inactive) | 28 µM (inactive) | 8.51 µM (inactive) | 22.1 µM (inactive) | 20.4 µM (inactive) | 3.56 µM (inactive) | 20.8 µM (inactive) | –
COc1nc2ccc(COc3ccc(C(=O)NC(CCC(=O)O)C(=O)O)cc3)cc2nc1OC (stereo unspecified) | > 10 µM (inactive) | > 10 µM (inactive) | > 10 µM (inactive) | > 10 µM (inactive) | > 10 µM (inactive) | > 10 µM (inactive) | > 10 µM (inactive) | > 10 µM (inactive) | > 10 µM (inactive) | – | > 10 µM (inactive) | > 10 µM (inactive) | > 10 µM (inactive) | > 10 µM (inactive) | > 10 µM (inactive) | > 10 µM (inactive) | > 10 µM (inactive) | > 10 µM (inactive) | > 10 µM (inactive) | > 10 µM (inactive)
CCOC(=O)C1(C/C=C\CBr)CCCCCCC1=O (stereo unspecified) | > 100 µM (inactive) | > 100 µM (inactive) | > 100 µM (inactive) | > 100 µM (inactive) | > 100 µM (inactive) | > 100 µM (inactive) | > 100 µM (inactive) | > 100 µM (inactive) | > 100 µM (inactive) | > 100 µM (inactive) | > 100 µM (inactive) | > 100 µM (inactive) | > 100 µM (inactive) | > 100 µM (inactive) | > 100 µM (inactive) | > 100 µM (inactive) | > 100 µM (inactive) | > 100 µM (inactive) | > 100 µM (inactive) | –
CC(=O)Nc1cccc(/N=N/N(C)C)c1 | > 100 µM (inactive) | > 100 µM (inactive) | > 100 µM (inactive) | > 100 µM (inactive) | > 100 µM (inactive) | > 100 µM (inactive) | > 100 µM (inactive) | > 100 µM (inactive) | > 100 µM (inactive) | > 100 µM (inactive) | > 100 µM (inactive) | > 100 µM (inactive) | > 100 µM (inactive) | > 100 µM (inactive) | > 95.3 µM (inactive) | > 100 µM (inactive) | > 100 µM (inactive) | > 100 µM (inactive) | > 100 µM (inactive) | –
O=C(NN=C1CCCCC1)NN=C1CCCCC1 | > 100 µM (inactive) | > 100 µM (inactive) | > 100 µM (inactive) | > 100 µM (inactive) | > 100 µM (inactive) | > 100 µM (inactive) | > 100 µM (inactive) | – | > 100 µM (inactive) | > 100 µM (inactive) | > 100 µM (inactive) | > 100 µM (inactive) | – | – | > 100 µM (inactive) | > 100 µM (inactive) | > 100 µM (inactive) | > 100 µM (inactive) | > 100 µM (inactive) | –
CN1CCOC(c2ccc(Cl)cc2)O1 (stereo unspecified) | > 100 µM (inactive) | > 100 µM (inactive) | > 100 µM (inactive) | > 100 µM (inactive) | > 100 µM (inactive) | – | > 100 µM (inactive) | > 100 µM (inactive) | > 100 µM (inactive) | > 100 µM (inactive) | > 100 µM (inactive) | > 100 µM (inactive) | > 100 µM (inactive) | > 100 µM (inactive) | > 100 µM (inactive) | > 100 µM (inactive) | > 100 µM (inactive) | > 100 µM (inactive) | > 100 µM (inactive) | > 100 µM (inactive)
CCOP(=O)(C/C=C/Cn1ncc(=O)[nH]c1=O)OCC | > 100 µM (inactive) | > 100 µM (inactive) | > 100 µM (inactive) | > 100 µM (inactive) | > 100 µM (inactive) | > 100 µM (inactive) | > 100 µM (inactive) | > 100 µM (inactive) | – | > 100 µM (inactive) | > 100 µM (inactive) | > 100 µM (inactive) | > 100 µM (inactive) | > 100 µM (inactive) | > 100 µM (inactive) | – | > 100 µM (inactive) | > 100 µM (inactive) | > 100 µM (inactive) | > 10 µM (inactive)
Cc1ccc(C2C(C(=O)C(C)(C)C)N2S(=O)(=O)c2ccc(C)cc2)cc1 (stereo unspecified) | 22.6 µM (inactive) | 19.5 µM (inactive) | 33.5 µM (inactive) | 24.3 µM (inactive) | 34.5 µM (inactive) | 22.4 µM (inactive) | – | 21.3 µM (inactive) | 23.7 µM (inactive) | 23.4 µM (inactive) | 21.3 µM (inactive) | 21 µM (inactive) | 30.5 µM (inactive) | 14.9 µM (inactive) | 28.1 µM (inactive) | > 100 µM (inactive) | 19.8 µM (inactive) | – | 18.4 µM (inactive) | –
CO/C(=N\N=C(/C)C(F)(F)F)c1ccncc1 | > 100 µM (inactive) | > 100 µM (inactive) | > 100 µM (inactive) | > 100 µM (inactive) | > 100 µM (inactive) | – | 44.5 µM (inactive) | > 100 µM (inactive) | > 100 µM (inactive) | > 100 µM (inactive) | > 100 µM (inactive) | > 100 µM (inactive) | – | – | > 100 µM (inactive) | > 100 µM (inactive) | > 100 µM (inactive) | – | > 100 µM (inactive) | > 100 µM (inactive)
CCCC(O)C(NC(=O)CCl)C(=O)O (stereo unspecified) | > 100 µM (inactive) | > 100 µM (inactive) | > 100 µM (inactive) | > 100 µM (inactive) | > 100 µM (inactive) | > 100 µM (inactive) | > 100 µM (inactive) | > 100 µM (inactive) | > 100 µM (inactive) | > 100 µM (inactive) | > 100 µM (inactive) | > 100 µM (inactive) | > 100 µM (inactive) | > 100 µM (inactive) | > 100 µM (inactive) | > 100 µM (inactive) | > 100 µM (inactive) | > 100 µM (inactive) | > 100 µM (inactive) | –
CSCCC(NC(=O)C(Cc1ccccc1)NC(=O)CNC(=O)CNC(=O)C(N)Cc1ccc(O)cc1)C(=O)O (stereo unspecified) | > 100 µM (inactive) | > 100 µM (inactive) | > 100 µM (inactive) | > 100 µM (inactive) | > 100 µM (inactive) | > 100 µM (inactive) | > 100 µM (inactive) | – | > 100 µM (inactive) | > 100 µM (inactive) | > 55.5 µM (inactive) | > 100 µM (inactive) | > 100 µM (inactive) | > 100 µM (inactive) | > 100 µM (inactive) | > 100 µM (inactive) | > 100 µM (inactive) | > 100 µM (inactive) | > 100 µM (inactive) | –
O=P(Nc1ccccc1)(Oc1ccccc1)N(CCCl)CCCl (stereo unspecified) | 37.8 µM (inactive) | > 100 µM (inactive) | > 100 µM (inactive) | > 100 µM (inactive) | 65.8 µM (inactive) | – | > 100 µM (inactive) | > 100 µM (inactive) | > 100 µM (inactive) | – | > 100 µM (inactive) | – | > 100 µM (inactive) | > 100 µM (inactive) | > 100 µM (inactive) | 23.1 µM (inactive) | > 100 µM (inactive) | > 100 µM (inactive) | 12.4 µM (inactive) | > 100 µM (inactive)
N#Cc1c(NC(=S)NC(=O)c2ccccc2)nc2c(c1-c1ccccc1)CCC2 | > 100 µM (inactive) | > 100 µM (inactive) | > 100 µM (inactive) | > 100 µM (inactive) | > 100 µM (inactive) | > 100 µM (inactive) | 58.1 µM (inactive) | – | > 100 µM (inactive) | > 100 µM (inactive) | > 100 µM (inactive) | – | > 100 µM (inactive) | > 100 µM (inactive) | – | > 100 µM (inactive) | 78.2 µM (inactive) | > 100 µM (inactive) | 8.67 µM (inactive) | > 100 µM (inactive)
Cc1cc(C)c2c(O)cc(-c3ccc(F)cc3)nc2n1 | 26.7 µM (inactive) | 32.1 µM (inactive) | > 100 µM (inactive) | 39.2 µM (inactive) | 20.7 µM (inactive) | 45.6 µM (inactive) | 29.9 µM (inactive) | 35.6 µM (inactive) | 38.6 µM (inactive) | 47.6 µM (inactive) | 80.5 µM (inactive) | – | 42.1 µM (inactive) | > 100 µM (inactive) | 37.3 µM (inactive) | 87.9 µM (inactive) | 50.7 µM (inactive) | 33.1 µM (inactive) | 23.9 µM (inactive) | 23.3 µM (inactive)
